Data reported in PMC3437750 (Journal of medicinal chemistry, 2011).

What was measured:
purified human PMM2 = target: T1, purified human PMM2 (Homo sapiens, UniProt O15305); experiment: PMM2 in vitro enzymatic concentration-response assay; format: biochemical; details: tested up to 20 µM where stated
T1 sequence (O15305 1-246): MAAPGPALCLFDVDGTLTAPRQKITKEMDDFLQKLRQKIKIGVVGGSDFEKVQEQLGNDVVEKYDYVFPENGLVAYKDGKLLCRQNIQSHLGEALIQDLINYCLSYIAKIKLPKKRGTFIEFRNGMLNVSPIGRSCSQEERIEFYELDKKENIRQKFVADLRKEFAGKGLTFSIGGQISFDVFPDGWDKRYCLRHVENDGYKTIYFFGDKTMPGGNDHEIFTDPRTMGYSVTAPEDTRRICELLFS

purified human PMI = target: T2, purified human PMI (Homo sapiens, UniProt P34949); format: biochemical
T2 sequence (P34949 1-423): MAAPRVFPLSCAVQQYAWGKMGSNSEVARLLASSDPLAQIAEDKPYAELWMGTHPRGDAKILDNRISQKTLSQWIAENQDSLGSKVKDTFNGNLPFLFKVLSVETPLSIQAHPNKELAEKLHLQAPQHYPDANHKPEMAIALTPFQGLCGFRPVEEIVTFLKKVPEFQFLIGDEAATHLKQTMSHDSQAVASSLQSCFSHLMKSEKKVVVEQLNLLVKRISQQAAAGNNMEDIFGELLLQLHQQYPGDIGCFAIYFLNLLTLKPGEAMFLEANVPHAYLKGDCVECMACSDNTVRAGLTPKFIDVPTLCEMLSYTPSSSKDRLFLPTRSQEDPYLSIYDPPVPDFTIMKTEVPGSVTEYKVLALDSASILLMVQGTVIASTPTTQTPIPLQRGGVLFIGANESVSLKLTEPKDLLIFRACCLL

[1] = Parallel Artificial Membrane Permeation Assay; format: in vitro ADME; details: assessed in vitro, PAMPA
[2] = Glutathione conjugation assay; details: 10 µM, 2 mg/mL rat hepatic S9, 10 mM glutathione, 37°C, 2 hours

SMILES | PMM2 inhibition (in words) (purified human PMM2) | GSH adduct formation by LCMS (in words) [2] | further results
O=c1c2ccccc2sn1-c1ccccc1 [Compound 1, 2-Phenyl-2-hydrobenzo[d]isothiazol-3-one] | selective for PMI over PMM2 |  | 
O=c1c2ccccc2sn1-c1ccc(C(F)(F)F)cc1 [Compound 6, 2-[4-(Trifluoromethyl)phenyl]-2-hydrobenzo[d]isothiazol-3-one] | inactive against both enzymes |  | PMI inhibition (in words) (purified human PMI): inactive against both enzymes; cellular toxicity (35S-Met/Cys incorporation, in words) (Hela cells): exhibits cellular toxicity
Cc1ccc(C)c(-n2sc3ccccc3c2=O)c1 [Compound 16, 2-(2,5-dimethylphenyl) benzo[d]isothiazol-3(2H)-one] | a measurable inhibition of PMM2 was observed |  | 
O=c1c2cc(F)ccc2sn1-c1ccccc1 [Compound 19, 5-Fluoro-2-phenylbenzo[d]isothiazol-3(2H)-one] |  | no GSH adducts were observed | predicted permeability (in words) [1]: moderately permeable
O=C(O)Cc1ccccc1Nc1c(Cl)cccc1Cl [diclofenac, reference compound] |  | showed the expected conjugate masses | 
